The values that follow come from paper PMC5663926, “In vivo near-infrared imaging of ErbB2 expressing breast tumors with dual-axes confocal endomicroscopy using a targeted peptide” (Scientific Reports, 2017).

The target in data set [1] is ErbB2 extracellular domain 3. Particulars: cited from earlier work.
In data set [2] the test system is ErbB2 on SKBR3 human breast cancer cells. Put plainly: siRNA knockdown of ErbB2 in SKBR3 cells, binding of labeled ligand. Type of data set: cell-based. As to the method: We performed siRNA knockdown of ErbB2 in SKBR3 human breast cancer cells to validate specific binding of KSP* to ErbB2.
(§1) ~10^4 human breast cancer cells were seeded on 1 mm thick cover glass, and grown to ~80% confluence in 12 well plates. The cells were gently washed with cold PBS and blocked with 2% BSA before incubation with peptides. 1 μM of IRDye800CW-labeled peptides mixed with 2% BSA was added to each well and incubated at 4 °C for 1 hour. After incubation for […], the cells were washed with PBS 3X, fixed in ice cold 4% PFA for 10 min, and washed with PBS 1X. The cells were then embedded on microscope slides with 5 μL of ProLong Gold reagent containing DAPI (Invitrogen). SKBR3 cells were cultured in 6-well plates at 30–40% confluence in culture media supplemented with 10% fetal bovine serum without antibiotics. The cells were transfected with siRNA with a final concentration of […] using oligofectamine (Thermo Scientific).
We examined ErbB2 knockdown in SKBR3 cells using ON-TARGETplus human siRNA (#L-003126–00–0005), ON-TARGETplus Non-targeting pool (#D-001810–10–05), and DharmaFECT transfection reagents (Thermo Scientific) per manufacturer instructions. We transfected SKBR3 cells with either siErbB2 (targeting siRNA) or siCL (non-targeting siRNA) for control at a final concentration of […] using oligofectamine (Thermo Scientific).

The next data set deals with ErbB2 on SKBR3 cells. In words: Binding co-localization with anti-ErbB2 antibody on cells. Type of data set: cell-based, human. Particulars: KSP*-Cy5.5 and anti-ErbB2-AF488, average of 3 independent measurements. The procedure: […] The cells were washed and fixed with 4% PFA for 5 min, and then incubated with primary anti-ErbB2 and secondary AF488-labeled antibody.
For imaging, we used an inverted confocal microscope (Olympus FV1200) with a 63X water immersion objective and λex = 748 nm to excite IRDye800CW, λex = 405 nm for DAPI, and λex = 488 nm for Alexa Fluor 488. For antibody staining, the cells were pre-fixed with cold methanol for 10 min at −20 °C and blocked with 2% BSA for 30 min at room temperature (RT). Cells were incubated with a 1:450 dilution of anti-ErbB2 antibody (clone 111.6, Thermo Scientific) overnight at 4 °C. The cells were then washed with PBS 3X, and secondary goat […] antibody labeled with Alexa-Fluor 488 (AF488) was added to the cells for 1 hour at RT. The cells were washed further with PBS and mounted onto cover glass. Fluorescence intensities were measured from 3 randomly positioned boxes with dimensions of 20 × 20 μm^2, and were quantified using custom Matlab (Mathworks) software.

The test system of another data set is ErbB2. Put plainly: Competition with unlabeled peptide for binding of labeled KSP* to cells. Type of data set: cell-based, human. Particulars: unlabeled peptide 0, 100, 250, 500, 1000 μM, 30 min at 4 °C; for effect of unlabeled peptide on binding of KSP*-IR800: BT474 cells as per Results text, then 0.5 μM labeled peptide; for effect of unlabeled peptide on mean fluorescence intensity of KSP*-Cy5.5: SKBR3 cells, one-way ANOVA (Fig. 2 legend). As to the method: We performed competition by adding either unlabeled KSP* or PPS* peptide to block binding of KSP*-IR800 to BT474 cells. […] We also observed good co-localization of binding between KSP*-Cy5.5 (red) and AlexaFluor488-labeled anti-ErbB2 antibody (green) with Pearson’s correlation coefficient ρ = 0.70, Fig. 2P–S.
Specific binding of KSP*-IR800 to SKBR3 cells was validated using competition with unlabeled KSP* peptide. SKBR3 cells were grown to ~70% confluence on coverslips in triplicate. Unlabeled KSP* at concentrations of 0, 100, 250, 500, and 1000 μM was incubated with the cells for 30 min at 4 °C. The cells were washed with PBS 3X, and further incubated with 0.5 μM of KSP*-IR800 for another 30 min at 4 °C. The cells were washed with PBS 3X and fixed with 4% PFA for 10 min. The cells were washed with PBS and then mounted with ProLong Gold reagent containing DAPI (Invitrogen). Confocal fluorescence images were collected and intensities from 6 independent images at each concentration were quantified using custom Matlab (Mathworks) software.

The subject of data set [3] is ErbB2 on BT474 (ErbB2+) and MDA-MB-231 (ErbB2−) human breast cancer cells. In words: Confocal microscopy of NIR-labeled peptide binding to breast cancer cells. Type of data set: cell-based. Particulars: 1 μM peptide, 2% BSA, 4 °C, 1 hour. As to the method: as §1
For imaging, we used an inverted confocal microscope (Olympus FV1200) with a 63X water immersion objective and λex = 748 nm to excite IRDye800CW, λex = 405 nm for DAPI, and λex = 488 nm for Alexa Fluor 488. For antibody staining, the cells were pre-fixed with cold methanol for 10 min at −20 °C and blocked with 2% BSA for 30 min at room temperature (RT). […] Fluorescence intensities were measured from 3 randomly positioned boxes with dimensions of 20 × 20 μm^2, and were quantified using custom Matlab (Mathworks) software.

The subject of data set [4] is ErbB2 in human breast specimens (IDC, DCIS, normal). In words: Immunofluorescence of human breast specimens ex vivo. The source says: We evaluated peptide binding to sections of human breast specimens to assess potential for clinical translation. […] Representative histology (H&E) is shown, Fig. 6D. We also observed strong co-localization of binding (arrow) between KSP*-IR800 peptide (red) and AF488-labeled anti-ErbB2 antibody (green) to ErbB2 + IDC specimens with Pearson’s correlation coefficient of ρ = 0.53, Fig. 6E,F. We quantified the fluorescence intensities, Fig. 6G. […] Representative histology (H&E) for DCIS is shown, Fig. 6M. […] Representative histology (H&E) for normal is shown, Fig. 6O.
(§2) Resected human xenograft breast tumors and normal breast tissues from n = 8 mice were formalin-fixed, paraffin embedded, and cut in 5 μm thick sections. IDC and normal human breast tissues were collected and prepared with the same protocol. The specimens were cut in 5 μm sections, and deparaffinization, rehydration and antigen unmasking was performed, as described previously. Blocking was performed with DAKO protein blocking agent (X0909, DAKO) for 1 hour at RT. Sections were then incubated with 0.5 μM of either peptide in 2% BSA for 10 min at RT. The sections were washed with PBS 3X and mounted with Prolong Gold reagent containing DAPI (Invitrogen).
Formalin-fixed, paraffin-embedded (FFPE) human breast specimens known to express ErbB2 (n = 4 patients) were obtained from the archived tissue bank in the Department of Pathology at the University of Michigan. 5 μm sections were cut and rehydrated to water. Slides were counterstained with Harris Hematoxylin for 5 sec, dehydrated, and cover-slipped. Heat induced epitope retrieval was performed with FLEX TRS High pH Retrieval buffer (DAKO, 9.01) for 20 min. After peroxidase blocking, the antibody Her2/neu rabbit monoclonal (Cell Marque Corporation, SP3 cat#237R-16) was applied at a dilution of 1:150 at RT for 20 min. The EnVision + detection System HRP anti-rabbit (DAKO, #K4002) was used for detection. DAB chromogen was then applied for 10 min. Sections of human breast specimens were mounted onto glass slides (Superfrost Plus, Fischer Scientific). The tissues were deparaffinized, and antigen retrieval was performed, as discussed above. Histology and IHC were performed to evaluate for ErbB2 expression.
Human breast specimens were embedded in paraffin and antigen unmasking was performed as described above. Blocking was performed with 2% BSA solution in PBS at RT for 1 hour. We used 1:250 dilution of monoclonal mouse anti-ErbB2 antibody (clone 111.6, Thermo Scientific). The sections were incubated at RT for 1 hour with primary antibody and then washed in PBS for 5 min. […] Fluorescence intensities were measured from 3 randomly positioned boxes with dimensions of 20 × 20 μm^2.

In data set [5] the test system is ErbB2 in BT474 and MDA-MB-231 xenograft tumor and normal breast sections. Put plainly: Immunofluorescence of human xenograft breast tumor sections. On the set-up: species or system mouse. Particulars: 0.5 μM peptide, 10 min at RT. The procedure:
Representative histology (H&E) for the MDA-MB-231 tumor is shown, Fig. S7I. […] Representative histology (H&E) for normal is shown, Fig. S7M.
as §2

Data set [6] is described as follows: Absorption and fluorescence emission spectra. Type of data set: physicochemical. An excerpt: We synthesized the ErbB2 and control peptides using standard Fmoc mediated solid-phase chemical synthesis and labeled with either Cy5.5 or IRDye800 fluorophores via standard bio-conjugation techniques. We used IRDye800CW-malemide (LiCor Biosciences) to label the peptide via a GGGSC linker at the C-terminus. The coupling yield was about 20–30% in aqueous solution without use of catalysis. IRDye800CW was used because of its high quantum yield, photostability, and lack of toxicity. The peptide absorption spectrum was measured using a UV-vis spectrophotometer in the 300–900 nm range (NanoDrop 2000, Thermo Scientific). Fluorescence emission from a 5 μM peptide solution diluted in PBS was collected with a fiber coupled spectrophotometer (Ocean Optics) using a diode pumped solid state laser (Technica Laser Inc) with excitation at λex = 780 nm. The spectra were plotted using Origin 9.5 software (OriginLab Corp).

On to KSPNPRF [KSP*-Cy5.5], for which the Kd in data set [1] (peptide labeled with Cy5.5, read-out: affinity) is 20 nM. In addition, the “binding kinetics (rate)” value in data set [1] (peptide labeled with Cy5.5) was 0.14 min⁻¹. For the same substance, the “fold greater signal, siCL control versus siErbB2 knockdown cells” value in data set [2] (SKBR3, average of 3 independent measurements, ANOVA, difference of differences significant) came out at 4.42 fold. For the same substance, the “reduction in fluorescence intensities in ErbB2 knockdown cells” value in data set [2] (SKBR3 siErbB2 versus siCL, qualitative) is reported as “significant reduction”. In data set [2] (control SKBR3 cells (siCL), qualitative), the “binding to cell surface” value is on record as “strong binding”. For the same substance, the “Pearson's correlation coefficient ρ for co-localization with anti-ErbB2-AF488” value in the data set with ErbB2 on SKBR3 cells turned out to be 0.70.

On to KSPNPRF [KSP*], for which, in the data set with ErbB2, the “effect of unlabeled peptide on binding of KSP*-IR800” value was “decreases significantly in a concentration dependent manner” and the “effect of unlabeled peptide on mean fluorescence intensity of KSP*-Cy5.5” value was “decreases significantly in a concentration dependent manner”.

Consider “PPSNFKR [PPS*, unlabeled scrambled control peptide]”, for which, in the data set with ErbB2, the “effect of unlabeled peptide on binding of KSP*-IR800” value is reported as “significantly less effective competition” and the “effect of unlabeled peptide on mean fluorescence intensity of KSP*-Cy5.5” value was “significantly less affected”.

Regarding PPSNFKR [PPS*-IR800], the “fold greater signal, BT474 versus MDA-MB-231 cells” value in data set [3] (average of 3 independent measurements, ANOVA on log-transformed data, difference of differences significant) was found to be 1.04 fold. The “signal to cell surface” value in data set [3] (either cell (BT474 and MDA-MB-231), qualitative) is on record as “Minimal signal”. Also, the “binding / signal on immunofluorescence” value in data set [4] (ductal carcinoma in situ (DCIS), 0.5 μM peptide, 10 min at RT, qualitative) is on record as “minimal signal”; in data set [4] (invasive ductal carcinoma (IDC), 0.5 μM peptide, 2% BSA, 10 min at RT, qualitative), “minimal signal”; in data set [5] (BT474 xenograft tumor sections, 2% BSA, qualitative), “minimal signal”. In data set [4] (n = 4 patients, ANOVA on log-transformed data, difference of differences not significant, P = 0.09), the “fold greater signal, IDC (ErbB2+) versus normal (ErbB2−) breast” value is listed as 1.30 fold. Also, in data set [4] (normal human breast tissue, 0.5 μM peptide, 10 min at RT, qualitative), the staining on immunofluorescence entry is on record as “minimal staining”. Moreover, the “fluorescence intensity on immunofluorescence” value in data set [5] (MDA-MB-231 tumor sections, qualitative) is listed as “minimal”; in data set [5] (normal breast sections, qualitative) it was “minimal”. For the same substance, the “fold increase, BT474 versus MDA-MB-231 tumors” value in data set [5] (xenograft tumor sections, ANOVA with terms for 6 groups on log-transformed data) was found to be 1.8 fold. Also, in data set [6] (5 μM peptide solution diluted in PBS, excitation 780 nm), the “peak emission λem” value is reported as 800 nm. Further, in data set [6] (UV-vis spectrophotometer, 300–900 nm range), the “maximum absorbance λex” value is 780 nm.
